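The compound was tested at five concentrations on cells cultured in 96-well plates, with a 48-hour exposure period. Abbreviation: GI50, concentration required for 50% inhibition of growth. At the TGI there is no net growth.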
Columns and labels:
Test in all cases: inhibition of tumour cell growth, NCI panel, 48 h
OVCAR-4 ovarian = tested on: OVCAR-4 ovarian
MDA-MB-231 breast = tested on: MDA-MB-231 breast
MOLT-4 leukemia = tested on: MOLT-4 leukemia
HCT-15 colon = tested on: HCT-15 colon
MCF7 breast = tested on: MCF7 breast
CAKI-1 renal = tested on: CAKI-1 renal
LOX IMVI melanoma = tested on: LOX IMVI melanoma
SF-539 CNS = tested on: SF-539 CNS
SF-268 CNS = tested on: SF-268 CNS
OVCAR-3 ovarian = tested on: OVCAR-3 ovarian
SK-MEL-5 melanoma = tested on: SK-MEL-5 melanoma
HS 578T breast = tested on: HS 578T breast
M14 melanoma = tested on: M14 melanoma
SK-MEL-2 melanoma = tested on: SK-MEL-2 melanoma
HL-60(TB) leukemia = tested on: HL-60(TB) leukemia
A549 NSCLC = tested on: A549 NSCLC
HCT-116 colon = tested on: HCT-116 colon
HCC-2998 colon = tested on: HCC-2998 colon
EKVX NSCLC = tested on: EKVX NSCLC
RPMI-8226 leukemia = tested on: RPMI-8226 leukemia
UACC-257 melanoma = tested on: UACC-257 melanoma
BT-549 breast = tested on: BT-549 breast
ACHN renal = tested on: ACHN renal
MALME-3M melanoma = tested on: MALME-3M melanoma
UO-31 renal = tested on: UO-31 renal
CCRF-CEM leukemia = tested on: CCRF-CEM leukemia
HOP-62 NSCLC = tested on: HOP-62 NSCLC
A498 renal = tested on: A498 renal
NCI-H460 lung = tested on: NCI-H460 lung
MDA-MB-435 = tested on: MDA-MB-435
K-562 leukemia = tested on: K-562 leukemia
DU-145 prostate = tested on: DU-145 prostate
TK-10 renal = tested on: TK-10 renal
SR leukemia = tested on: SR leukemia
SK-OV-3 ovarian = tested on: SK-OV-3 ovarian
786-0 renal = tested on: 786-0 renal
U251 CNS = tested on: U251 CNS
SNB-19 CNS = tested on: SNB-19 CNS
NCI-H23 lung = tested on: NCI-H23 lung
SF-295 CNS = tested on: SF-295 CNS
NCI-H522 lung = tested on: NCI-H522 lung
NCI-H226 lung = tested on: NCI-H226 lung
NCI/ADR-RES ovarian = tested on: NCI/ADR-RES ovarian
COLO 205 colon = tested on: COLO 205 colon
HT29 colon = tested on: HT29 colon
KM12 colon = tested on: KM12 colon
HOP-92 NSCLC = tested on: HOP-92 NSCLC
SN12C renal = tested on: SN12C renal
SNB-75 CNS = tested on: SNB-75 CNS
PC-3 prostate = tested on: PC-3 prostate
OVCAR-8 ovarian = tested on: OVCAR-8 ovarian
IGROV1 ovarian = tested on: IGROV1 ovarian
T-47D breast = tested on: T-47D breast
SK-MEL-28 melanoma = tested on: SK-MEL-28 melanoma
RXF 393 renal = tested on: RXF 393 renal
SW-620 colon = tested on: SW-620 colon
UACC-62 melanoma = tested on: UACC-62 melanoma
OVCAR-5 ovarian = tested on: OVCAR-5 ovarian

Structure (SMILES): N#Cc1c(-c2ccccc2)cc(-c2ccccc2)n(CCCC(=O)NO)c1=O
- GI50 (OVCAR-4 ovarian): 1920 nM
- TGI (OVCAR-4 ovarian): 11800 nM
- GI50 (MDA-MB-231 breast): 2900 nM
- TGI (MDA-MB-231 breast): 10400 nM
- GI50 (MOLT-4 leukemia): 1220 nM
- TGI (MOLT-4 leukemia): 5980 nM
- GI50 (HCT-15 colon): 434 nM
- TGI (HCT-15 colon): 10700 nM
- GI50 (MCF7 breast): 1700 nM
- TGI (MCF7 breast): 10600 nM
- GI50 (CAKI-1 renal): 473 nM
- TGI (CAKI-1 renal): 2650 nM
- GI50 (LOX IMVI melanoma): 1630 nM
- TGI (LOX IMVI melanoma): 3410 nM
- GI50 (SF-539 CNS): 1680 nM
- TGI (SF-539 CNS): 5030 nM
- GI50 (SF-268 CNS): 2310 nM
- TGI (SF-268 CNS): 6720 nM
- GI50 (OVCAR-3 ovarian): 1610 nM
- TGI (OVCAR-3 ovarian): 4600 nM
- GI50 (SK-MEL-5 melanoma): 1890 nM
- TGI (SK-MEL-5 melanoma): 4740 nM
- GI50 (HS 578T breast): 1810 nM
- TGI (HS 578T breast): 8500 nM
- GI50 (M14 melanoma): 898 nM
- TGI (M14 melanoma): 10100 nM
- GI50 (SK-MEL-2 melanoma): 2020 nM
- TGI (SK-MEL-2 melanoma): 10000 nM
- GI50 (HL-60(TB) leukemia): 1810 nM
- TGI (HL-60(TB) leukemia): 5430 nM
- GI50 (A549 NSCLC): 2200 nM
- TGI (A549 NSCLC): 7950 nM
- GI50 (HCT-116 colon): 1670 nM
- TGI (HCT-116 colon): 6700 nM
- GI50 (HCC-2998 colon): 2170 nM
- TGI (HCC-2998 colon): 8660 nM
- GI50 (EKVX NSCLC): 1800 nM
- TGI (EKVX NSCLC): 7810 nM
- GI50 (RPMI-8226 leukemia): 1140 nM
- TGI (RPMI-8226 leukemia): 3800 nM
- GI50 (UACC-257 melanoma): 1730 nM
- TGI (UACC-257 melanoma): 7380 nM
- GI50 (BT-549 breast): 2770 nM
- TGI (BT-549 breast): 14100 nM
- GI50 (ACHN renal): 494 nM
- TGI (ACHN renal): 3590 nM
- GI50 (MALME-3M melanoma): 704 nM
- TGI (MALME-3M melanoma): 11500 nM
- GI50 (UO-31 renal): 392 nM
- TGI (UO-31 renal): 2300 nM
- GI50 (CCRF-CEM leukemia): 847 nM
- TGI (CCRF-CEM leukemia): 7150 nM
- GI50 (HOP-62 NSCLC): 2000 nM
- TGI (HOP-62 NSCLC): 6980 nM
- GI50 (A498 renal): 788 nM
- TGI (A498 renal): 2950 nM
- GI50 (NCI-H460 lung): 1720 nM
- TGI (NCI-H460 lung): 8780 nM
- GI50 (MDA-MB-435): 324 nM
- TGI (MDA-MB-435): 10700 nM
- GI50 (K-562 leukemia): 729 nM
- TGI (K-562 leukemia): 12900 nM
- GI50 (DU-145 prostate): 2660 nM
- TGI (DU-145 prostate): 10500 nM
- GI50 (TK-10 renal): 1000 nM
- TGI (TK-10 renal): 11100 nM
- GI50 (SR leukemia): 361 nM
- TGI (SR leukemia): 3650 nM
- GI50 (SK-OV-3 ovarian): 1980 nM
- TGI (SK-OV-3 ovarian): 5230 nM
- GI50 (786-0 renal): 1600 nM
- TGI (786-0 renal): 5850 nM
- GI50 (U251 CNS): 1690 nM
- TGI (U251 CNS): 4620 nM
- GI50 (SNB-19 CNS): 2700 nM
- TGI (SNB-19 CNS): 13000 nM
- GI50 (NCI-H23 lung): 2770 nM
- TGI (NCI-H23 lung): 9940 nM
- GI50 (SF-295 CNS): 2150 nM
- TGI (SF-295 CNS): 5020 nM
- GI50 (NCI-H522 lung): 1330 nM
- TGI (NCI-H522 lung): 5890 nM
- GI50 (NCI-H226 lung): 2240 nM
- TGI (NCI-H226 lung): 7410 nM
- GI50 (NCI/ADR-RES ovarian): 541 nM
- TGI (NCI/ADR-RES ovarian): 3720 nM
- GI50 (COLO 205 colon): 1970 nM
- TGI (COLO 205 colon): 4970 nM
- GI50 (HT29 colon): 2580 nM
- TGI (HT29 colon): 8580 nM
- GI50 (KM12 colon): 1100 nM
- TGI (KM12 colon): 11800 nM
- GI50 (HOP-92 NSCLC): 1970 nM
- TGI (HOP-92 NSCLC): 7530 nM
- GI50 (SN12C renal): 2340 nM
- TGI (SN12C renal): 10300 nM
- GI50 (SNB-75 CNS): 1240 nM
- TGI (SNB-75 CNS): 4850 nM
- GI50 (PC-3 prostate): 2130 nM
- TGI (PC-3 prostate): 14400 nM
- GI50 (OVCAR-8 ovarian): 1140 nM
- TGI (OVCAR-8 ovarian): 8670 nM
- GI50 (IGROV1 ovarian): 1690 nM
- TGI (IGROV1 ovarian): 4770 nM
- GI50 (T-47D breast): 1830 nM
- TGI (T-47D breast): 8340 nM
- GI50 (SK-MEL-28 melanoma): 2880 nM
- TGI (SK-MEL-28 melanoma): 12700 nM
- GI50 (RXF 393 renal): 939 nM
- TGI (RXF 393 renal): 2740 nM
- GI50 (SW-620 colon): 1930 nM
- TGI (SW-620 colon): 12600 nM
- GI50 (UACC-62 melanoma): 1820 nM
- TGI (UACC-62 melanoma): 5630 nM
- GI50 (OVCAR-5 ovarian): 2300 nM
- TGI (OVCAR-5 ovarian): 8430 nM

Reference: PubChem BioAssay (NCI)
